Legend:
[1] = system: T1, CTL2-GFP (C. trachomatis L2/434/Bu, GFP-expressing); assay: microbe, parasite or virus in culture; set-up: Intracellular C. trachomatis growth in HeLa cells, bulk GFP fluorescence relative to DMSO; settings: Chlamydia trachomatis, HeLa, 28.5 h; bulk GFP, mean of 2; read-out: % of control remaining
T1 construct: L2/434/Bu, GFP-expressing
Procedure: MICs were calculated as described above.

[2] = in vitro; set-up: Viability of infected HeLa host cells, resazurin conversion, bulk resorufin fluorescence relative to DMSO; settings: human, hela cells; bulk resorufin, mean of 2
[3] = system: T2, C. trachomatis L2/434/Bu expressing GFP (CTL2-GFP); assay: microbe, parasite or virus in culture; set-up: C. trachomatis total inclusion area by high-content imaging, normalised to DMSO; settings: Chlamydia trachomatis, HeLa, 28.5 h; total inclusion area; read-out: % of control remaining
T2 construct: L2/434/Bu GFP intracellular growth in HeLa cells
Summary of the method: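 GFP/resorufin bulk fluorescence read → fix → Hoechst stain → high-content imaging. Inclusion total area + count = growth proxy; nuclei count = host viability proxy. MIC calc per earlier method.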

Compound | activity at 1 µM [1] [%] | activity at 5 µM [1] [%] | activity at 10 µM [1] [%] | viability at 28.5 h, 1 µM [2] [%] | viability at 28.5 h, 5 µM [2] [%] | viability at 28.5 h, 10 µM [2] [%] | activity at 1 µM [3] [%] | activity at 5 µM [3] [%] | activity at 10 µM [3] [%]
O=[N+]([O-])c1cccc(C(Nc2cccnc2)c2cc(Cl)c3cccnc3c2O)c1 (centres unmarked) [CBK268629] | 102 | 82 | 56.2 | 93.9 | 88.9 | 91.6 | 104 | 93.6 | 47.5
O=C1Oc2nc3ccccc3cc2CN1C1CC1 [CBK282870] | 0.777 | 1.12 | 3.61 | 112 | 112 | 98.4 | 0.264 | 0.496 | 0.404
O=C(c1cccs1)N1C[C@H](c2ccc(F)cc2)[C@H]2CN(Cc3ccccc3)CC[C@H]21 [CBK285544] | 93.9 | 109 | 115 | 93.4 | 91.7 | 95.5 | 74.8 | 78.2 | 59.8
Cc1cccc(-c2ccc(CC3(C(N)=O)CCN(C(=O)CCc4ccccc4)CC3)cc2)c1 [CBK285796] | 133 | 4.53 | 4.56 | 91.6 | 96.9 | 106 | 113 | 4.18 | 1.3
Cc1ccc2[nH]c(-c3cccc(NC(=O)c4cccc(CN5CCCC5=O)c4)c3)nc2c1 [CBK285838] | 137 | 94.9 | 34.2 | 93 | 83.3 | 87.6 | 125 | 91.8 | 48.2
O=C(CC1CCN(CCc2ccccc2)CC1)Nc1cccc(-n2cccn2)c1 [CBK285951] | 11.3 | 5.45 | 1.48 | 91.7 | 87.4 | 88.6 | 13.7 | 0.475 | 0.166
CCc1cc(-c2n[nH]cc2-c2nc(C)cs2)c(O)cc1OC [CBK287934] | 133 | 62.2 | 7.47 | 101 | 96.8 | 94.8 | 87.9 | 31.5 | 6.53
CNC(=S)N1CCN(c2nsc3ccccc23)CC1 [CBK288515] | 4.18 | 3.58 | 5.68 | 98.8 | 96.2 | 101 | 0.93 | 0.381 | 0.417
O=C(O)c1cn(C2CC2)c2cc(N3CCN(C(=O)C4CCCO4)CC3)c(F)cc2c1=O (centres unmarked) [CBK297139] | 96.1 | 15.3 | 0.67 | 97 | 94.9 | 114 | 46.9 | 12.4 | 6.62
COCCCNS(=O)(=O)c1ccc(-n2ncc(Cl)c(Cl)c2=O)cc1 [CBK305039] | 78.8 | 24.5 | 21.2 | 97.7 | 32.2 | 0 | 73.2 | 2.13 | –
Cc1ccccc1Nc1nc(N)nc(CN2CCCC(C(F)(F)F)C2)n1 (centres unmarked) [CBK305073] | 153 | 120 | 139 | 96.6 | 101 | 97.7 | 144 | 60.7 | 97.8
O=C(NCCCn1ccnc1)N1CCN(Cc2ccc(Cl)cc2)CC1 [CBK305894] | 143 | 148 | 147 | 90.1 | 93.5 | 89.5 | 118 | 87 | 78.9
O=C(NS(=O)(=O)c1cccc(-c2nnco2)c1)C1CC1C1CCCCC1 (centres unmarked) [CBK305924] | 129 | 146 | 143 | 91 | 99.4 | 94.7 | 120 | 151 | 119

— article PMC12040169 (PLOS Biology, 2025)
